Several values for one entry are separate records, joined by “and”; a condition that tells them apart may be missing. Identical values can stand only once.

In general, IC50 refers to the point on the concentration scale where inhibition reaches its midpoint. In general, EC50 refers to the concentration at which the effect is half-maximal.

One assay addresses T1, hTRPC6 (Homo sapiens, UniProt Q9Y210).
T1 construct: expressed in transfected cells
T1 sequence (Q9Y210 1-931): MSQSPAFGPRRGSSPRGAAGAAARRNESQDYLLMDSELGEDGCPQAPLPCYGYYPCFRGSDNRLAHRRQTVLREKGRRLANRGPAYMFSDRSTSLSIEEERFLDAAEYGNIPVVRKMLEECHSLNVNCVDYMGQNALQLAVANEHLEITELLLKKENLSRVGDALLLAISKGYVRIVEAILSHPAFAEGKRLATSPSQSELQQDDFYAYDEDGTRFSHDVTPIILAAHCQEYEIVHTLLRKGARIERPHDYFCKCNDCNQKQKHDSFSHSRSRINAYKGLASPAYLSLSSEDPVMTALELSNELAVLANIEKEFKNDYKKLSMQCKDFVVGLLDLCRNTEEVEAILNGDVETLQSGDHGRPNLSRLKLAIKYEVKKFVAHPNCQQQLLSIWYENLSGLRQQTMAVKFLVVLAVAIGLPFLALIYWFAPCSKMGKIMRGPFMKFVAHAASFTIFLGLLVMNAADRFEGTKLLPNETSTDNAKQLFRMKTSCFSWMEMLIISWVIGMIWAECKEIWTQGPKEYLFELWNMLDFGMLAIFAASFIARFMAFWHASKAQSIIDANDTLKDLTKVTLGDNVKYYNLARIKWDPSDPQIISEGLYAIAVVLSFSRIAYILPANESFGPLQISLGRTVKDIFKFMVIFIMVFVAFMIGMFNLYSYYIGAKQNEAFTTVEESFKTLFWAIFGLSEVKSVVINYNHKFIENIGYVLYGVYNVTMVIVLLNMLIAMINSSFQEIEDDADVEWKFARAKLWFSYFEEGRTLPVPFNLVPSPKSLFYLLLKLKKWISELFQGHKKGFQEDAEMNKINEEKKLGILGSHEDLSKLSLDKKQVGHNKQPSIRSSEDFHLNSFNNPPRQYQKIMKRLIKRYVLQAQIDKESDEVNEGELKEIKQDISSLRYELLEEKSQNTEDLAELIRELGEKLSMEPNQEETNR
Put plainly: OAG-induced Ca2+ entry, fluo-4 fluorometric imaging plate reader, TRPC6 HEK-FITR cells. It is filed as cell-based. The settings on record: for IC50: TRPC6 HEK-FITR cells, fluo-4, area under the curve, 10 min pre-incubation, read-out: IC50, inhibition of OAG-induced Ca2+ entry via TRPC6; for Hill slope n, inhibition of TRPC6-mediated Ca2+ entry: fit to Hill model. On the procedure: Cells were grown at 37°C in a humidified atmosphere (5% or 7% CO2) under standard cell culture conditions. Stable human embryonic kidney (HEK) cell lines expressing recombinant mTRPC4ß (GenBank accession number AAC05178); mTRPC5 (GenBank accession number NM_009428) or hTRPC6 (GenBank accession number AF080394) under the control of a tetracycline-inducible promoter were generated using the Flp-In T-Rex (FITR) system (Invitrogen, Karlsruhe, Germany). TRPC4/5/6 HEK-FITR cells were maintained in Dulbecco's modified eagle medium (DMEM, with glutaMAX I, 4.5 g/l glucose and […] sodium pyruvate) supplemented with 10% (v/v) fetal bovine serum (Biochrom, Berlin, Germany), 1 mM glutamine, 1 mM MEM sodium pyruvate, 40 μg/ml hygromycin (50 μg/ml for mTRPC5 HEK-FITR cells), and 15 μg/ml blasticidine HCl. Channel expression was induced by supplementing the growth medium for 18-24 h with 1 μg/ml doxycycline. Cells grown to an almost confluent monolayer on black poly-D-lysine coated 96-well plates (Greiner, Frickenhausen, Germany) were washed with standard extracellular solution (140 mM NaCl, 1 mM MgCl2, 5.4 mM KCl, 2 mM CaCl2, 10 mM HEPES, 10 mM glucose, pH 7.35) and stained (30 min, room temperature) with dye solution (2 μM fluo-4 AM, 0.02% pluronic F127, 0.1% bovine serum albumin in standard extracellular solution). Cells were washed and either incubated with standard extracellular solution only or with different concentrations of test compounds for 10 min. Fluo-4 fluorescence was excited at 488 nm with an argon laser and measured using a fluorometric imaging plate reader (Molecular Devices, Sunnyvale, USA). All fluorometric measurements were performed at room temperature. […] Baseline fluorescence in non-OAG-stimulated cells and OAG-stimulated Ca^2+ influx into control cells not treated with inhibitors were defined as 0% and 100% influx, respectively. For statistical analysis, analysis of variance was performed with Origin 6.0 software (Microcal Software Inc., Northampton, USA). […] Averaged data is expressed as means ± SEM.

The test system of the next assay is rat aortic rings. Put plainly: Isometric force measurement, relaxation of phenylephrine pre-contracted rat aortic rings. As to conditions: L-NAME treated, n = 6, read-out: EC50, vasorelaxation of pre-contracted aortic rings. As for the experimental part: Adult male Wistar-Unilever rats (8–11 weeks old; Harlan Winkelmann, Borchen, Germany) were sacrificed by decapitation. Thoracic aortas were excised quickly, transferred to cold (4°C), carbogen (95% O2 and 5% CO2) bubbled physiological salt solution (119 mM NaCl, 4.7 mM KCl, 1.2 KH2PO4, 1.2 mM MgSO4, 1.6 mM CaCl2, 25 mM NaHCO3, 11 mM glucose) and rinsed. After removal of connective tissue and perivascular fat aortas were dissected in 5 mm rings, connected to force transducers and equilibrated in carbogen bubbled physiological salt solution at 37°C for 15 min. Aortic rings were set at 1000 mg passive tension and contractile forces were then measured isometrically using standard bath procedures as described earlier. […]
For statistical analysis, analysis of variance was performed with Origin 6.0 software (Microcal Software Inc., Northampton, USA). […] IC50 were calculated with SigmaPlot (Systat software, San Jose, USA) using the sigmoidal Hill-model: f = 100 (C^n/(IC50 ^n+C^n)); where f is the inhibition, C is the applied drug concentration and n is the Hill coefficient. The half maximal effective concentration (EC50) of norgestimate-induced vasorelaxation was calculated analogously with R = y0+y1C^n/(EC50 ^n+C^n); where R is relaxation, yo and y1 are constants, C is the applied drug concentration and n is the Hill coefficient. Averaged data is expressed as means ± SEM.

As to `C#C[C@]1(OC(C)=O)CC[C@H]2[C@@H]3CCC4=CC(=NO)CC[C@@H]4[C@H]3CC[C@@]21CC` (mixture of isomers) [norgestimate], on hTRPC6 (30 µM pre-incubation, OAG-induced), the “Effect on TRPC6-mediated Ca2+ entry” value was “significantly reduced”. On hTRPC6, the IC50 was 3 to 5 µM and 5.2 µM; the “Hill slope n, inhibition of TRPC6-mediated Ca2+ entry” value is listed as 0.97. For the same molecule, in the assay on rat aortic rings, the EC50 was 8.19 µM.
On to `CC(=O)[C@H]1CC[C@H]2[C@@H]3CCC4=CC(=O)CC[C@]4(C)[C@H]3CC[C@]12C` [progesterone], for which, at hTRPC6, the IC50 was 18 µM and the “Hill slope n, inhibition of TRPC6-mediated Ca2+ entry” value turned out to be 1.2.

The values are drawn from PMC3328449, “Inhibition of Diacylglycerol–Sensitive TRPC Channels by Synthetic and Natural Steroids” (PLoS ONE, 2012).
